Results on two molecules are retold here after publication PMC11436701 (Scientific Reports, 2024).

For the assay, the target named is AChE (Electrophorus electricus, 220 U·mg^-1) (Electrophorus electricus, UniProt O42275). Kind of assay: modified Ellman assay, […] nm. Type of assay: biochemical. A general note: Ellman's reagent forms a yellow product with free thiols.
AChE (Electrophorus electricus, 220 U·mg^-1), sequence (O42275 24-633): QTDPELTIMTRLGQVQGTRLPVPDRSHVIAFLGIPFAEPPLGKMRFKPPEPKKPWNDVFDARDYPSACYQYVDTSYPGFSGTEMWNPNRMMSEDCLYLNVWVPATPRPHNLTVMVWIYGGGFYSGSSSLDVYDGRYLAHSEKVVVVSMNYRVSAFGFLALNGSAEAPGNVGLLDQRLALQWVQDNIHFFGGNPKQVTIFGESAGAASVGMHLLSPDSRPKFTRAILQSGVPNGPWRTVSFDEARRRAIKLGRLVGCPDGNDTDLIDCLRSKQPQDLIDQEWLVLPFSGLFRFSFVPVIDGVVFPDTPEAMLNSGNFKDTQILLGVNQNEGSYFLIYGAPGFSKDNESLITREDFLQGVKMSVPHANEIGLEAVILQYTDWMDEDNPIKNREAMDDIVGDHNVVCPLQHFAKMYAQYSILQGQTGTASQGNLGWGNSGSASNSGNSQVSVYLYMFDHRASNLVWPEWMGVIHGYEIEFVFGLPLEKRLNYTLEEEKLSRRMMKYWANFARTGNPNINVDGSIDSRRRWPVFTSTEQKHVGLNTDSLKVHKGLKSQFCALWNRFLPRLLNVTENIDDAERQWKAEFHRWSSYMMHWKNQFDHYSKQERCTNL

What is called IC50 is the midpoint of a concentration-inhibition curve. Low readings indicate greater potency, high ones weaker potency. `COP(=O)(OC)OC=C(Cl)Cl` [DDVP, dichlorvos] registered an IC50 of 1.25 µM.
To `CCOP(=S)(OCC)Oc1nc(Cl)c(Cl)cc1Cl` [CPF, chlorpyrifos] belongs 73 µM.
